≈ marks a conversion by molar mass, not a printed value.
Key:
Cryptosporidium parvum [1] = test: Anticryptosporidial activity against Cryptosporidium parvum GCH1 assessed as inhibition of rabbit erythrocytes hemagglutinination; format: functional
[2] = Inhibition of Cryptosporidium parvum recombinant Galactose/N-acetylgalactosamine-specific lectin binding to Caco2A cells; format: cell-based; settings: caco-2
Cryptosporidium hominis [3] = test: Anticryptosporidial activity against Cryptosporidium hominis TU502 assessed as inhibition of rabbit erythrocytes hemagglutinination relative to galactose; format: functional
Cryptosporidium parvum [4] = test: Anticryptosporidial activity against Cryptosporidium parvum GCH1 assessed as inhibition of rabbit erythrocytes hemagglutinination relative to galactose; format: functional
Cryptosporidium hominis [5] = test: Anticryptosporidial activity against Cryptosporidium hominis TU502 assessed as inhibition of rabbit erythrocytes hemagglutinination; format: functional

Work on `O=C[C@H](O)[C@@H](O)[C@@H](O)[C@H](O)CO` [GALACTOSE] yielded an MIC (Cryptosporidium parvum [1]) of 6.2 mM (≈ 1120 µg/mL), an IC50 [2] of 12.5 mM and an Activity (Cryptosporidium hominis [3]) of 1. The Activity (Cryptosporidium parvum [4]) was 1 and the MIC (Cryptosporidium hominis [5]) was 6.2 mM (≈ 1120 µg/mL).
With `CC(=O)N[C@@H]1[C@@H](O)[C@H](O)[C@@H](CO)O[C@H]1O` [N-ACETYLGLUCOSAMINE] the MIC (Cryptosporidium parvum [1]) was 50 mM (≈ 11100 µg/mL), the IC50 [2] was greater than 500 mM and the Activity (Cryptosporidium hominis [3]) was 0.062. The Activity (Cryptosporidium parvum [4]) was 0.124 and the MIC (Cryptosporidium hominis [5]) was greater than 100 mM.
`CC(=O)N[C@@H]1[C@@H](O)[C@H](O)[C@@H](CO[C@@H]2O[C@H](CO)[C@H](O)[C@H](O)[C@H]2O)O[C@H]1O` showed an IC50 [2] of 0.5 mM.
For `C[C@H](O)[C@@H](O)[C@@H](O)[C@H](O)C=O` [L-FUCOSE], the MIC (Cryptosporidium parvum [1]) was greater than 100 mM, the IC50 [2] was greater than 500 mM and the Activity (Cryptosporidium hominis [3]) was less than 0.062. For the same compound, the Activity (Cryptosporidium parvum [4]) was less than 0.062 and the MIC (Cryptosporidium hominis [5]) was greater than 100 mM.
`O=[N+]([O-])c1ccc(O[C@@H]2O[C@H](CO)[C@H](O)[C@H](O)[C@H]2O)cc1` showed an IC50 [2] of 50 mM.
`OC[C@H]1O[C@H](O[C@@H]2[C@H](O)[C@@H](O)C(O)O[C@@H]2CO)[C@H](O)[C@@H](O)[C@H]1O` (stereo partly drawn) showed an IC50 [2] of 2.5 mM.
In the case of `CC(=O)N[C@H]1C(O)O[C@H](CO)[C@H](O)[C@@H]1O[C@@H]1O[C@H](CO)[C@H](O)[C@H](O)[C@H]1O` (stereo partly drawn), the IC50 [2] is reported as 3.5 mM.
Compound `CO[C@H]1O[C@H](CO)[C@@H](O)[C@H](O)[C@H]1O` has an IC50 [2] greater than 500 mM.
`CC(=O)N[C@@H]1[C@@H](O[C@@H]2O[C@H](CO)[C@H](O)[C@H](O)[C@H]2O)[C@H](O)[C@@H](CO)O[C@H]1O` showed an IC50 [2] of 1.5 mM.
`OC[C@H]1O[C@@H](O)[C@H](O)[C@@H](O)[C@@H]1O` [DEXTROSE] showed an MIC (Cryptosporidium parvum [1]) of 100 mM (≈ 18000 µg/mL), an IC50 [2] greater than 500 mM and an Activity (Cryptosporidium hominis [3]) of 0.062. The Activity (Cryptosporidium parvum [4]) was 0.062 and the MIC (Cryptosporidium hominis [5]) was greater than 100 mM.
With `O=[N+]([O-])c1ccc(O[C@H]2O[C@H](CO)[C@H](O)[C@H](O)[C@H]2O)cc1` the IC50 [2] was 25 mM.
`OC[C@H]1OC(O)[C@@H](O)[C@@H](O)[C@@H]1O` (stereo partly drawn) [D-MANNOSE] gave an MIC (Cryptosporidium parvum [1]) of 50 mM (≈ 9010 µg/mL), an IC50 [2] greater than 500 mM and an Activity (Cryptosporidium hominis [3]) of 0.062. For the same compound, the Activity (Cryptosporidium parvum [4]) was 0.124 and the MIC (Cryptosporidium hominis [5]) was greater than 100 mM.
`OC[C@H]1O[C@H](O[C@H]2[C@H](O)[C@@H](O)[C@H](O)O[C@@H]2CO)[C@H](O)[C@@H](O)[C@H]1O` gave an IC50 [2] of 5 mM.
Compound `CC(=O)N[C@H]1C(O)O[C@H](CO)[C@H](O)[C@@H]1O` (stereo partly drawn) has an MIC (Cryptosporidium parvum [1]) of 3.1 mM (≈ 686 µg/mL), an IC50 [2] of 6.5 mM and an Activity (Cryptosporidium hominis [3]) of 2. It also gave an Activity (Cryptosporidium parvum [4]) of 2 and an MIC (Cryptosporidium hominis [5]) of 3.1 mM (≈ 686 µg/mL).
